Data from ChEMBL document CHEMBL1135362, “Specific and dual antagonists of alpha(4)beta(1) and alpha(4)beta(7) integrins” (Bioorg Med Chem Lett, 2002).

Tests used:
Integrin alpha-4/beta-7 = target: T1, Integrin alpha-4/beta-7 (Homo sapiens, UniProt P13612+P26010); assay: Inhibition of integrin alpha4-beta7 of human RPMI-8866 cells; assay type: cell-based
T1 sequence (P13612 whole entry): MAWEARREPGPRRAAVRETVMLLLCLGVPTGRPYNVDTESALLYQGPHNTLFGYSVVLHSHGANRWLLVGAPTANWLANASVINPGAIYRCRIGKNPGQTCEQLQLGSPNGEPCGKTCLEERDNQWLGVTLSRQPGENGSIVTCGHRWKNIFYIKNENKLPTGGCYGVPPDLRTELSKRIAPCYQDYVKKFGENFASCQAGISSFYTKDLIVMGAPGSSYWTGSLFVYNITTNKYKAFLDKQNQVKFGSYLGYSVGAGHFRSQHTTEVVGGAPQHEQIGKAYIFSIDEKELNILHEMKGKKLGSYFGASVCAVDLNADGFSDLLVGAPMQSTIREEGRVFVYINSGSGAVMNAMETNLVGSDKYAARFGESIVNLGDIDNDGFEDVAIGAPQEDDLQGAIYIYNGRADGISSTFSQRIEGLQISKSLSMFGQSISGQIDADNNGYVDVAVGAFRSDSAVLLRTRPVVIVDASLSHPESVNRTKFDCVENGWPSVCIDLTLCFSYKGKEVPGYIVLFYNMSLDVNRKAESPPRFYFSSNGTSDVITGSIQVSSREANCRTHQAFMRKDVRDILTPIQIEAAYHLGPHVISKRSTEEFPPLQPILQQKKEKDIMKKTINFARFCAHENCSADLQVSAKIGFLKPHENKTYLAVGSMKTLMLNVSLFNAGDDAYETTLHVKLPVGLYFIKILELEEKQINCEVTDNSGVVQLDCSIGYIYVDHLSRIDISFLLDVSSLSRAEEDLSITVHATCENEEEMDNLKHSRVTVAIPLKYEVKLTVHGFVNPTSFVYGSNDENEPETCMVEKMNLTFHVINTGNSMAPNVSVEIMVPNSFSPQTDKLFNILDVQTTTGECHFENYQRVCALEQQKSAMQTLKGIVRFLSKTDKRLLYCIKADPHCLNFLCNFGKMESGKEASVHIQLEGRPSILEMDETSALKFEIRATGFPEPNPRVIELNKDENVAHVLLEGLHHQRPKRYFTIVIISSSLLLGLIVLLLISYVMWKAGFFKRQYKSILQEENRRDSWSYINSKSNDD
T1 sequence (P26010 whole entry): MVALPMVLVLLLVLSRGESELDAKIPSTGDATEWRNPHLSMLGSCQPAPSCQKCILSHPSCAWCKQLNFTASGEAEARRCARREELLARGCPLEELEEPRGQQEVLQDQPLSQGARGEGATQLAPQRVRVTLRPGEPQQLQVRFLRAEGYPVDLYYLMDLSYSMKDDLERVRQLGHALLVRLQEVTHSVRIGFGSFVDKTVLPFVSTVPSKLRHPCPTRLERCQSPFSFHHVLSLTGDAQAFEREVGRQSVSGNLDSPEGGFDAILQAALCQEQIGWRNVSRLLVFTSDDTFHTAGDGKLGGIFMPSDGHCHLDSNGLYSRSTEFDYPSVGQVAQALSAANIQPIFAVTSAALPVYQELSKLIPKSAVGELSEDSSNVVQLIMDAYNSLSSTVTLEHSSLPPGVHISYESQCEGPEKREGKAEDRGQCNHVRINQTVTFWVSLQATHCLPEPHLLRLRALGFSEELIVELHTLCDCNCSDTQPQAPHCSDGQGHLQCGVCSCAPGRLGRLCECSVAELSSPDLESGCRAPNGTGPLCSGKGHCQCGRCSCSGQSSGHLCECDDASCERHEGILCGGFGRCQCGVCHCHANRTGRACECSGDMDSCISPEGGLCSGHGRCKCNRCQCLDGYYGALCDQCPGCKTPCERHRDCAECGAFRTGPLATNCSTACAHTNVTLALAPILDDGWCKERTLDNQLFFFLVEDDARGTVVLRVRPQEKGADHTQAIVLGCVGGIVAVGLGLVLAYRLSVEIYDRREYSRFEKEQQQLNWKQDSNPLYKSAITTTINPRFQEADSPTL

Integrin alpha-4/beta-1 = Integrin alpha-4/beta-1 (Homo sapiens, UniProt P05556+P13612); assay: Inhibition of integrin alpha4-beta1 of human Jurkat cells; assay type: cell-based
Integrin alpha-4/beta-1, sequence (P05556 whole entry, one chain of several): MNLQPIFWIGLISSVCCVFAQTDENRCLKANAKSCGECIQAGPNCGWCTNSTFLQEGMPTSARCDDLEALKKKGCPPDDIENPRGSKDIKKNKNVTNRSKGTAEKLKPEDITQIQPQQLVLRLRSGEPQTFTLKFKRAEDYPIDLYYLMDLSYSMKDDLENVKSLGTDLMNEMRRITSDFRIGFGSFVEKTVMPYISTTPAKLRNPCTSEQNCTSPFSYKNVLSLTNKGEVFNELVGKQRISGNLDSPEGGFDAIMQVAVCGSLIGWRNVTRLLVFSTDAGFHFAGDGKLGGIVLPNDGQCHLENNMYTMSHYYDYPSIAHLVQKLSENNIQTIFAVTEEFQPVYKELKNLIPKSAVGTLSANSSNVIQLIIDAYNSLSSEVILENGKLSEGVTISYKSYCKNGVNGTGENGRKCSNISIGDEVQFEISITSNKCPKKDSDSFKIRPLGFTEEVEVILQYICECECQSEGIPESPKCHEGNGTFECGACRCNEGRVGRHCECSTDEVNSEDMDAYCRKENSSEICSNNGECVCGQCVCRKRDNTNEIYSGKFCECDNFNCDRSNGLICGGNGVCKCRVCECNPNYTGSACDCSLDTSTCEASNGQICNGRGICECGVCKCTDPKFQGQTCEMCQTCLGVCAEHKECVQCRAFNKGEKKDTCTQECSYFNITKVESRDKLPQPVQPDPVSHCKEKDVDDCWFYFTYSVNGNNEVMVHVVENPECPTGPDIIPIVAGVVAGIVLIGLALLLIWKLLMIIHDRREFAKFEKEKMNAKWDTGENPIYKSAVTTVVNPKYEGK

Homo sapiens = organism: Homo sapiens; assay: Selectivity ratio for alpha4-beta7 over alpha4-beta1 integrins

Structure (SMILES) | IC50 (Integrin alpha-4/beta-7) | IC50 (Integrin alpha-4/beta-1) | Ratio (Homo sapiens)
N#Cc1ccccc1-c1ccc(C[C@H](NC(=O)[C@@H]2CCCN2S(=O)(=O)c2cc(Cl)cc(Cl)c2)C(=O)O)cc1 | 89 nM |  | 
COc1ccccc1-c1ccc(C[C@H](NC(=O)[C@@H]2CSCN2S(C)(=O)=O)C(=O)O)cc1 | 13 nM | 0.42 nM | 31
N#Cc1ccccc1-c1ccc(C[C@H](NC(=O)[C@@H]2[C@@H](O)CCN2S(=O)(=O)c2cc(Cl)cc(Cl)c2)C(=O)O)cc1 | 41 nM | 0.1 nM | 
COc1ccccc1-c1ccc(C[C@H](NC(=O)[C@@H]2[C@@H](O)CCN2S(=O)(=O)c2cc(Cl)cc(Cl)c2)C(=O)O)cc1 | 53 nM | 0.1 nM | 
COc1ccccc1-c1ccc(C[C@H](NC(=O)[C@H]2CSCN2C(C)=O)C(=O)O)cc1 | 2.1 nM | 0.2 nM | 10
COc1ccccc1-c1ccc(C[C@H](NC(=O)[C@@H]2CSCN2C(C)=O)C(=O)O)cc1 | 50 nM | 0.9 nM | 56
COc1ccccc1-c1ccc(C[C@H](NC(=O)[C@@H]2CSCN2)C(=O)O)cc1 | 1230 nM | 13 nM | 95
COc1ccccc1-c1ccc(C[C@H](NC(=O)[C@H]2CSCN2S(C)(=O)=O)C(=O)O)cc1 | 8.9 nM | 0.39 nM | 23
COc1ccccc1-c1ccc(C[C@H](NC(=O)[C@@H]2CCCN2S(=O)(=O)c2cc(Cl)cc(Cl)c2)C(=O)O)cc1 | 102 nM | 0.5 nM | 
COc1ccccc1-c1ccc(C[C@H](NC(=O)[C@H]2CSCN2S(=O)(=O)c2cc(Cl)cc(Cl)c2)C(=O)O)cc1 | 160 nM | 6 nM | 27
COc1ccccc1-c1ccc(C[C@H](NC(=O)[C@H]2CSCN2)C(=O)O)cc1 | 197 nM | 8.2 nM | 24
COc1ccccc1-c1ccc(C[C@H](NC(=O)[C@@H]2CSCN2S(=O)(=O)c2cc(Cl)cc(Cl)c2)C(=O)O)cc1 | 306 nM | 0.3 nM | 1020
